Measured values: article PMC8142146 (Bioorganic chemistry, 2020)
Like-named read-outs stand apart in the source and are kept apart here.

Tests used:
PARP1 [1] = target: T1, PARP1 (Homo sapiens, UniProt P09874); assay: in vitro PARP1 enzyme assay; details: for fold improvement in PARP1 activity compared to lead 4: vs unsubstituted lead 4 (IC50 = 5.8 μM); for inhibition at 5 µM: read-out: PARP1 inhibition at 5 μM
PARP1 [2] = target: T1, PARP1; details: read-out: PARP1 IC50, literature value; cited from earlier work
PARP1 [3] = target: T1, PARP1; assay: BPS PARP1 Chemiluminescent Activity Assay Kit; format: biochemical

T1 sequence (P09874 whole entry): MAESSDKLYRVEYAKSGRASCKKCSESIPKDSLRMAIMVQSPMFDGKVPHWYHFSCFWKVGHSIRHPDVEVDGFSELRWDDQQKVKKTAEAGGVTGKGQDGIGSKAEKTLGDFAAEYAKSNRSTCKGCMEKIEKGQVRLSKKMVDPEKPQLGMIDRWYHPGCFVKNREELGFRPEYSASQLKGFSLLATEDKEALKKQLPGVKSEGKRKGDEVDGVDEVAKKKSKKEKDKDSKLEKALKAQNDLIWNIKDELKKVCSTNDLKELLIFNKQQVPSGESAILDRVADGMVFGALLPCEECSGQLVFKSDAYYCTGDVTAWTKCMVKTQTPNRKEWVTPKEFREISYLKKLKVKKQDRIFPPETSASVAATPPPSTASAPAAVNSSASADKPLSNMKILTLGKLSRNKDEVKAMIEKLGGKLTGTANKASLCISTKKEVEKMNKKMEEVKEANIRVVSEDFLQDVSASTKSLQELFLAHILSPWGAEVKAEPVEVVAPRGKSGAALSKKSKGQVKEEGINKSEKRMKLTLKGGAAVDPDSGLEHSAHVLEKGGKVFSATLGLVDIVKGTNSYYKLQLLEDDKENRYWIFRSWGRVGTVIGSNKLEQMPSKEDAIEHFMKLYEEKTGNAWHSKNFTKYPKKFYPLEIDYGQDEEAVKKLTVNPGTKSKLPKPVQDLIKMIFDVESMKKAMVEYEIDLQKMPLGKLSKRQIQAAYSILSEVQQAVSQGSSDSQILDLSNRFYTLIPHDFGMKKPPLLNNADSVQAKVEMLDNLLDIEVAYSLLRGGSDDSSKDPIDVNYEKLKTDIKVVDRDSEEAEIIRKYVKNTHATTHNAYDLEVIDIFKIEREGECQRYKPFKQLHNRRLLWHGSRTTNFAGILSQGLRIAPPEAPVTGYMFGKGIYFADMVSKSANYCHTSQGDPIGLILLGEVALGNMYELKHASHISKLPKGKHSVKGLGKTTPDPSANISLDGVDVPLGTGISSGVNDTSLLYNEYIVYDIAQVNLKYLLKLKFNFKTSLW

Structure (SMILES)	inhibition at 5 µM (PARP1 [1]) [%]	other results
CS(=O)(=O)OC[C@@H]1COc2cccc(C(N)=O)c2O1 [Compound 21b, (S)-(8-Carbamoyl-2,3-dihydrobenzo[b][1,4]dioxin-2-yl)methyl methanesulfonate]	–	fold improved PARP1 activity over 25a (PARP1 [1]; vs hydroxymethyl precursor 25a): ~ 10 fold; fold improvement in PARP1 activity compared to lead 4 (PARP1 [1]): ~ 8 fold
CN1CCN(C[C@H]2COc3c(cccc3C(N)=O)O2)CC1 [Compound 22a, (S)-2-((4-Methylpiperazin-1-yl)methyl)-2,3-dihydrobenzo[b][1,4]dioxine-5-carboxamide]	< 20	–
CN1CCN(C[C@@H]2COc3cccc(C(N)=O)c3O2)CC1 [Compound 22b, (R)-3-((4-Methylpiperazin-1-yl)methyl)-2,3-dihydrobenzo[b][1,4]dioxine-5-carboxamide]	< 20	–
NC(=O)c1cccc2c1OC[C@H](CN1CCN(c3ncccn3)CC1)O2 [Compound 23a, (S)-2-((4-(Pyrimidin-2-yl)piperazin-1-yl)methyl)-2,3-dihydrobenzo[b][1,4]dioxine-5-carboxamide]	< 20	–
NC(=O)c1cccc2c1O[C@H](CN1CCN(c3ncccn3)CC1)CO2 [Compound 23b, (R)-3-((4-(Pyrimidin-2-yl)piperazin-1-yl)methyl)-2,3-dihydrobenzo[b][1,4]dioxine-5-carboxamide]	< 20	–
CS(=O)(=O)OC[C@H]1COc2cccc(C(N)=O)c2O1 [Compound 26b, (R)-(8-Carbamoyl-2,3-dihydrobenzo[b][1,4]dioxin-2-yl)methyl methanesulfonate]	–	fold improvement in PARP1 activity compared to lead 4 (PARP1 [1]): ~ 5 fold
CN1CCN(C[C@@H]2COc3c(cccc3C(N)=O)O2)CC1 [Compound 27a, (R)-2-((4-Methylpiperazin-1-yl)methyl)-2,3-dihydrobenzo[b][1,4]dioxine-5-carboxamide]	< 20	–
CN1CCN(C[C@H]2COc3cccc(C(N)=O)c3O2)CC1 [Compound 27b, (S)-3-((4-Methylpiperazin-1-yl)methyl)-2,3-dihydrobenzo[b][1,4]dioxine-5-carboxamide]	< 20	–
NC(=O)c1cccc2c1OC[C@@H](CN1CCN(c3ncccn3)CC1)O2 [Compound 28a, (R)-2-((4-(Pyrimidin-2-yl)piperazin-1-yl)methyl)-2,3-dihydrobenzo[b][1,4]dioxine-5-carboxamide]	< 20	–
NC(=O)c1cccc2c1O[C@@H](CN1CCN(c3ncccn3)CC1)CO2 [Compound 28b, (S)-3-((4-(Pyrimidin-2-yl)piperazin-1-yl)methyl)-2,3-dihydrobenzo[b][1,4]dioxine-5-carboxamide]	< 20	–
NC(=O)c1cccc2c1OCO2 [Compound 31, Benzo[d][1,3]dioxole-4-carboxamide]	–	IC50 (PARP1 [2]): 5.3 µM
NC(=O)c1cccc2c1OCCCO2 [Compound 32, 3,4-Dihydro-2H-benzo[b][1,4]dioxepine-6-carboxamide]	–	inhibition at 2.5 µM (PARP1 [1]; read-out: PARP1 inhibition at 2.5 μM): 15%
NC(=O)c1cccc2c1OCCN2 [Compound 44, 3,4-Dihydro-2H-benzo[b][1,4]oxazine-8-carboxamide]	–	fold less potent than 4 (PARP1) (PARP1 [1]; vs 4): ~ 2 fold
NC(=O)c1cccc2c1OCC(=O)N2 [Compound 45, 3-Oxo-3,4-dihydro-2H-benzo[b][1,4]oxazine-8-carboxamide]	–	fold enhanced PARP1 activity in comparison to 44 (PARP1 [1]; vs 44): 15 fold
NC(=O)c1cccc2c1O/C(=C\c1ccc(C(=O)O)cc1)C(=O)N2 [Compound 50, (Z)-2-(4-Carboxybenzylidene)-3-oxo-3,4-dihydro-2H-benzo[b][1,4]oxazine-8-carboxamide]	–	IC50 (PARP1 [3]): 0.42 ± 0.046 µM
